Assay results taken from publication PMC10745867, “Biotransformation of Ursonic Acid by Aspergillus ochraceus and Aspergillus oryzae to Discover Anti-Neuroinflammatory Derivatives” (Molecules, 2023).
Entries after “also recorded” stand apart in the source; their conditions may differ.

How the values were obtained:
[1] = test system: NO production induced by LPS in BV-2 cells; experiment: Inhibition of LPS-induced NO production in BV-2 cells (Griess method); format: cell-based; conditions: for IC50: BV-2 cells, 100 ng/mL LPS, 48 h, Griess reaction, mean ± SD, n = 3; for Suppression of NO generation (result in words): LPS-triggered BV-2 cells, Griess method
Protocol: To assess the potential capabilities of all modified products in counteracting neuroinflammation, we measured their suppressive effects on NO generation within LPS-triggered BV-2 cells using the Griess method.
(§1) NO production was assessed indirectly using the Griess reaction by measuring nitrite concentration in a culture medium. BV-2 cells were cultured in Dulbecco’s Modified Eagle Medium, supplemented with 10% FBS, 100 units/mL of penicillin, and 100 μg/mL of streptomycin. These cells were seeded in 96-well plates at a density of 8 × 10^4 cells/well and incubated for 24 h. Post incubation, they were exposed to 100 ng/mL of LPS alongside different compound concentrations for 48 h. A mixture of 100 μL culture supernatant and Griess reagent was left at room temperature for 10 min, with absorbance later read at 570 nm. L-NMMA served as the positive control. Cell viability was determined using the MTT assay, and experiments were conducted in triplicate. The IC50 for NO production inhibition was computed using GraphPad Prism 7.00 software.

[2] = Cell viability of BV-2 cells (MTT assay); format: cell-based; set-up: concentration or dose not given beside the values; conditions: mouse, mean ± SD, n = 3
Protocol: as §1

Compound | IC50 ([1]; Mus musculus, BV-2, 48 h) | melting point | IC50 [1] | viability at 48 h [2] | Suppression of NO generation (result in words) [1]
C[C@H]1[C@H](C)CC[C@]2(C(=O)O)CC[C@]3(C)C(=CC[C@@H]4[C@@]5(C)CCC(=O)C(C)(C)[C@@H]5CC[C@]43C)[C@H]12 [Compound 1, Ursonic acid] | 84.7 ± 3.22 µM |  |  | 98.8 ± 3.61% | 
C[C@H]1[C@H](C)C2C3=CCC4[C@@]5(C)CCC(=O)C(C)(C)C5C[C@H](O)[C@@]4(C)[C@]3(C)CC[C@@]2(C(=O)O)C[C@@H]1O (stereo partly drawn) [Compound 3, 3-oxo-7β,21β-dihydroxy-12-en-28-oic acid] | 20.9 ± 2.13 µM |  |  | 100 ± 3.92% | 
CC1C(O)CC23CCC4(C)C5(C)CCC6C(C)(C)C(=O)CCC6(C)C5C=CC4(OC2=O)C3C1C (stereo not drawn) [Compound 8, 3-oxo-21β-hydroxy-urs-11-en-13β,28β-lactone] | > 100 µM | 245 to 247 °C |  | 102 ± 3.54% | did not showcase any suppression capabilities; also recorded: did not exhibit any inhibitory activities
COC1=CCC2(C)C(CCC3(C)C2CC=C2C4C(C)C(C)CCC4(C(=O)O)CCC23C)C1(C)C (stereo not shown) [Compound 10, 3-methoxy-urs-2,12-dien-28-oic acid] | 8.2 µM | 284 to 288 °C | 8.23 ± 2.61 µM | 104 ± 4.05% | 
C[C@@H]1CC[C@]2(C(=O)O)CC[C@]3(C)C(=CCC4[C@@]5(C)CCC(=O)C(C)(C)C5CC[C@]43C)C2[C@]1(C)O (stereo partly drawn) [Compound 11, 3-oxo-19α-hydroxy-12-en-urs-28-oic acid] | 42.5 ± 3.7 µM |  |  | 101 ± 3.42% | 
C[C@@H]1CC[C@]2(C(=O)O[C@@H]3O[C@H](CO)[C@@H](O)[C@H](O)[C@H]3O)CC[C@]3(C)C(=CCC4[C@@]5(C)CCC(=O)C(C)(C)C5CC[C@]43C)C2[C@H]1C (stereo partly drawn) [Compound 12, ursonic acid-28-O-β-D-glucopyranosyl ester] | 31.1 ± 3.98 µM |  |  | 98.2 ± 4.37% | 
CC1C(O)CC23CCC4(C)C5(C)CCC6C(C)(C)C(=O)CC(O)C6(C)C5C5OC5C4(OC2=O)C3C1C (stereo not drawn) [Compound 14, 3-oxo-1β,21β-dihydroxyl-11β,12β-epoxyl-urs-13β,28β-lactone] | 22.6 ± 3.44 µM | 278 to 280 °C |  | 104 ± 4.92% | 
C[C@H]1[C@H](C)C2[C@@]3(CC[C@@]4(C)[C@@]5(C)C([C@H]6O[C@H]6[C@]24OC3=O)[C@@]2(C)CCC(=O)C(C)(C)C2C[C@@H]5O)C[C@@H]1O (stereo partly drawn) [Compound 16, 3-oxo-7β,21β-dihydroxyl-11β,12β-epoxyl-urs-13β,28β-lactone] | 6.9 µM | 268 to 273 °C | 6.86 ± 3.52 µM | 97.8 ± 4.75% | 
CC1C(O)CC23CCC4(C)C5(C)CCC6C(C)(C)C(=O)C=CC6(C)C5C5OC5C4(OC2=O)C3C1C (stereo not drawn) [Compound 18, 3-oxo-21β-hydroxyl-11β,12β-epoxyl-urs-1-ene-13β,28β-lactone] | 17.4 ± 2.72 µM | 242 to 245 °C |  | 103 ± 3.26% | 
[H]/N=C(/NC)NCCC[C@H](N)C(=O)O [L-NMMA, reference compound] | 28.2 ± 2.97 µM |  |  | 101 ± 4.36% | 

Now from value to molecule, other results behind:

IC50 ([1]; Mus musculus, BV-2, 48 h) | melting point | IC50 [1] | Compound | viability at 48 h [2] | Suppression of NO generation (result in words) [1]
38.2 ± 4.09 µM |  |  | C[C@H]1[C@H](C)C2C3=CCC4[C@@]5(C)CCC(=O)C(C)(C)C5CC[C@@]4(C)[C@]3(C)CC[C@@]2(C(=O)O)C[C@@H]1O (stereo partly drawn) [Compound 2, 3-oxo-21β-hydroxy-12-en-urs-28-oic acid] | 101 ± 2.45% | 
> 100 µM |  |  | C[C@@H]1C(=O)C[C@]2(C(=O)O)CC[C@]3(C)C(=CCC4[C@@]5(C)CCC(=O)C(C)(C)C5CC[C@]43C)C2[C@H]1C (stereo partly shown) [Compound 4, 3,21-dioxo-urs-12-en-28-oic acid] | 104 ± 3.18% | did not showcase any suppression capabilities
52.8 ± 3.34 µM | 251 to 254 °C |  | CC1C(=O)CC2(C(=O)O)CCC3(C)C(=CCC4C5(C)CCC(=O)C(C)(C)C5CC(O)C43C)C2C1C (stereo not drawn) [Compound 5, 3,21-dioxo-7β-hydroxy-urs-12-en-28-oic acid] | 101 ± 4.11% | 
50.2 ± 3.16 µM |  |  | C[C@@H]1CC[C@]2(C(=O)O)CC[C@]3(C)C(=CC(=O)C4[C@@]5(C)CCC(=O)C(C)(C)C5CC[C@]43C)C2[C@H]1C (stereo partly shown) [Compound 6, 3,11-dioxo-12-en-urs-28-oic acid] | 105 ± 4.23% | 
11.6 ± 2.01 µM | 268 to 271 °C |  | COC1C=C2C3C(C)C(C)C(O)CC3(C(=O)O)CCC2(C)C2(C)CCC3C(C)(C)C(=O)CCC3(C)C12 (stereo not drawn) [Compound 7, 3-oxo-11α-methoxy-21β-hydroxy-urs-12-en-28-oic acid] | 99.2 ± 3.72% | 
> 100 µM | 261 to 265 °C |  | CC1C(O)CC23CCC4(C)C(C=CC5C6(C)CCC(=O)C(C)(C)C6CC(O)C54C)(OC2=O)C3C1C (stereo not drawn) [Compound 9, 3-oxo-7β,21β-dihydroxy-urs-11-en-13β,28β-lactone] | 104 ± 3.86% | did not showcase any suppression capabilities; also recorded: did not exhibit any inhibitory activities
15.2 ± 3.07 µM | 257 to 263 °C |  | CC1C(O)CC23CCC4(C)C5(C)CCC6C(C)(C)C(=O)CCC6(C)C5C5OC5C4(OC2=O)C3C1C (stereo not drawn) [Compound 13, 3-oxo-21β-hydroxyl-11β,12β-epoxyl-urs-13β,28β-lactone] | 103 ± 3.59% | 
36.6 ± 2.33 µM | 270 to 274 °C |  | CC1C(O)CC23CCC4(C)C5(C)C(O)CC6C(C)(C)C(=O)CCC6(C)C5C5OC5C4(OC2=O)C3C1C (stereo not drawn) [Compound 15, 3-oxo-7α,21β-dihydroxyl-11β,12β-epoxyl-urs-13β,28β-lactone] | 102 ± 3.18% | 
40.8 ± 3.26 µM | 247 to 249 °C |  | CC1C(=O)CC23CCC4(C)C5(C)C(O)CC6C(C)(C)C(=O)CCC6(C)C5C5OC5C4(OC2=O)C3C1C (stereo not drawn) [Compound 17, 3,21-dioxo-7β-hydroxyl-11β,12β-epoxyl-urs-13β,28β-lactone] | 100 ± 3.54% | 
5.3 µM | 282 to 284 °C | 5.25 ± 3.19 µM | CC1=C2C(C3OC3C34OC(=O)C5(CCC23C)CC(O)C(C)C(C)C54)C2(C)CCC(=O)C(C)(C)C2C1 (stereo not drawn) [Compound 19, 3-oxo-21β-hydroxyl-7-methyl-11β,12β-epoxyl-7-ene-26-norurs-13β,28β-lactone] | 103 ± 3.03% | 
